Active and inactive are the calls of the source.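 How the source made its calls: active means GFP ratio to DMSO above 1.5 or below 0.66; inactive means the rest.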
Legend:
Experiment in all cases: expression changes of rapamycin-responsive GFP fusion proteins, S. cerevisiae, GFP-tagged clone panel, flow cytometry (AID 504473);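 further: median GFP fluorescence of the cells measured by high-throughput flow cytometry; test concentration not given here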
[1] = biological target: General amino acid permease AGP1 (Saccharomyces cerevisiae S288c) (UniProt P25376); settings: S. cerevisiae GFP-tagged strains, 3 h, YCL025C
Chain of General amino acid permease AGP1 (Saccharomyces cerevisiae S288c) (P25376 whole entry, looked up): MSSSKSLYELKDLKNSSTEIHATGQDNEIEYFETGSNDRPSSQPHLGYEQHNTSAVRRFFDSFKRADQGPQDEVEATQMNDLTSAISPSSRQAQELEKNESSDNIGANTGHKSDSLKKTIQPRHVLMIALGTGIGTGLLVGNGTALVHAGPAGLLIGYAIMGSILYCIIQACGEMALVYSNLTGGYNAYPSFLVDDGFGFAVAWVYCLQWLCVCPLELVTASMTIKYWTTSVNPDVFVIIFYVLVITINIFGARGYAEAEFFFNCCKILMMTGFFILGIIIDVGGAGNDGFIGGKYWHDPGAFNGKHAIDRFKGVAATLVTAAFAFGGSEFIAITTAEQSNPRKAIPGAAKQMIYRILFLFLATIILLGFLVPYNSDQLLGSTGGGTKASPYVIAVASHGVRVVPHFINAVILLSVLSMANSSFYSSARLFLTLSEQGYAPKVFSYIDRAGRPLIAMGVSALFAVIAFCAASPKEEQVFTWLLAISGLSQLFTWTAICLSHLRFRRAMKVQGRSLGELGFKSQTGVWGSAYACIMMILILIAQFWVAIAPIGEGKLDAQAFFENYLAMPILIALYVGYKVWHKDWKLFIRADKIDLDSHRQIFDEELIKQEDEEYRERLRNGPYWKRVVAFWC

YAL060W = settings: S. cerevisiae GFP-tagged strains, 3 h
YAL061W = settings: S. cerevisiae GFP-tagged strains, 3 h
YBL087C = settings: S. cerevisiae GFP-tagged strains, 3 h
YBR072W = settings: S. cerevisiae GFP-tagged strains, 3 h
YBR139W = settings: S. cerevisiae GFP-tagged strains, 3 h
YBR208C = settings: S. cerevisiae GFP-tagged strains, 3 h
YBR248C = settings: S. cerevisiae GFP-tagged strains, 3 h
YCL064C = settings: S. cerevisiae GFP-tagged strains, 3 h
YCR002C = settings: S. cerevisiae GFP-tagged strains, 3 h
YCR005C = settings: S. cerevisiae GFP-tagged strains, 3 h
YDL130W = settings: S. cerevisiae GFP-tagged strains, 3 h
YDL204W = settings: S. cerevisiae GFP-tagged strains, 3 h
YDL205C = settings: S. cerevisiae GFP-tagged strains, 3 h
YDR070C = settings: S. cerevisiae GFP-tagged strains, 3 h
YDR382W = settings: S. cerevisiae GFP-tagged strains, 3 h
YDR399W = settings: S. cerevisiae GFP-tagged strains, 3 h
YDR453C = settings: S. cerevisiae GFP-tagged strains, 3 h
YEL007W = settings: S. cerevisiae GFP-tagged strains, 3 h
YEL060C = settings: S. cerevisiae GFP-tagged strains, 3 h
YEL063C = settings: S. cerevisiae GFP-tagged strains, 3 h
YEL071W = settings: S. cerevisiae GFP-tagged strains, 3 h
YER081W = settings: S. cerevisiae GFP-tagged strains, 3 h
YER117W = settings: S. cerevisiae GFP-tagged strains, 3 h
YER151C = settings: S. cerevisiae GFP-tagged strains, 3 h
YER156C = settings: S. cerevisiae GFP-tagged strains, 3 h
YFR031C-A = settings: S. cerevisiae GFP-tagged strains, 3 h
YFR053C = settings: S. cerevisiae GFP-tagged strains, 3 h
YGL036W = settings: S. cerevisiae GFP-tagged strains, 3 h
YGL062W = settings: S. cerevisiae GFP-tagged strains, 3 h
YGL135W = settings: S. cerevisiae GFP-tagged strains, 3 h
YGL147C = settings: S. cerevisiae GFP-tagged strains, 3 h
YGR019W = settings: S. cerevisiae GFP-tagged strains, 3 h
YGR034W = settings: S. cerevisiae GFP-tagged strains, 3 h
YGR088W = settings: S. cerevisiae GFP-tagged strains, 3 h
YGR121C = settings: S. cerevisiae GFP-tagged strains, 3 h
YHL021C = settings: S. cerevisiae GFP-tagged strains, 3 h
YHR018C = settings: S. cerevisiae GFP-tagged strains, 3 h
YHR087W = settings: S. cerevisiae GFP-tagged strains, 3 h
YHR141C = settings: S. cerevisiae GFP-tagged strains, 3 h
YHR144C = settings: S. cerevisiae GFP-tagged strains, 3 h
YHR203C = settings: S. cerevisiae GFP-tagged strains, 3 h
YIL043C = settings: S. cerevisiae GFP-tagged strains, 3 h
YIL051C = settings: S. cerevisiae GFP-tagged strains, 3 h
YIL052C = settings: S. cerevisiae GFP-tagged strains, 3 h
YIL066C = settings: S. cerevisiae GFP-tagged strains, 3 h
YIL069C = settings: S. cerevisiae GFP-tagged strains, 3 h
YJL056C = settings: S. cerevisiae GFP-tagged strains, 3 h
YJL144W = settings: S. cerevisiae GFP-tagged strains, 3 h
YJR148W = settings: S. cerevisiae GFP-tagged strains, 3 h
YKL086W = settings: S. cerevisiae GFP-tagged strains, 3 h
YKL103C = settings: S. cerevisiae GFP-tagged strains, 3 h
YKL119C = settings: S. cerevisiae GFP-tagged strains, 3 h
YKR039W = settings: S. cerevisiae GFP-tagged strains, 3 h
YKR093W = settings: S. cerevisiae GFP-tagged strains, 3 h
YKR094C = settings: S. cerevisiae GFP-tagged strains, 3 h
YLL026W = settings: S. cerevisiae GFP-tagged strains, 3 h
YLL039C = settings: S. cerevisiae GFP-tagged strains, 3 h
YLR058C = settings: S. cerevisiae GFP-tagged strains, 3 h
YLR109W = settings: S. cerevisiae GFP-tagged strains, 3 h
YLR142W = settings: S. cerevisiae GFP-tagged strains, 3 h
YLR185W = settings: S. cerevisiae GFP-tagged strains, 3 h
YLR237W = settings: S. cerevisiae GFP-tagged strains, 3 h
YLR287C-A = settings: S. cerevisiae GFP-tagged strains, 3 h
YLR367W = settings: S. cerevisiae GFP-tagged strains, 3 h
YML004C = settings: S. cerevisiae GFP-tagged strains, 3 h
YML026C = settings: S. cerevisiae GFP-tagged strains, 3 h
YML034W = settings: S. cerevisiae GFP-tagged strains, 3 h
YML063W = settings: S. cerevisiae GFP-tagged strains, 3 h
YML128C = settings: S. cerevisiae GFP-tagged strains, 3 h
YMR105C = settings: S. cerevisiae GFP-tagged strains, 3 h
YMR120C = settings: S. cerevisiae GFP-tagged strains, 3 h
YMR251W-A = settings: S. cerevisiae GFP-tagged strains, 3 h
YMR307W = settings: S. cerevisiae GFP-tagged strains, 3 h
YNL015W = settings: S. cerevisiae GFP-tagged strains, 3 h
YNL068C = settings: S. cerevisiae GFP-tagged strains, 3 h
YNL112W = settings: S. cerevisiae GFP-tagged strains, 3 h
YNL142W = settings: S. cerevisiae GFP-tagged strains, 3 h
YNL214W = settings: S. cerevisiae GFP-tagged strains, 3 h
YNR001C = settings: S. cerevisiae GFP-tagged strains, 3 h
YOL052C-A = settings: S. cerevisiae GFP-tagged strains, 3 h
YOR038C = settings: S. cerevisiae GFP-tagged strains, 3 h
YOR063W = settings: S. cerevisiae GFP-tagged strains, 3 h
YOR136W = settings: S. cerevisiae GFP-tagged strains, 3 h
YOR173W = settings: S. cerevisiae GFP-tagged strains, 3 h
YOR182C = settings: S. cerevisiae GFP-tagged strains, 3 h
YOR371C = settings: S. cerevisiae GFP-tagged strains, 3 h
YOR375C = settings: S. cerevisiae GFP-tagged strains, 3 h
YPL111W = settings: S. cerevisiae GFP-tagged strains, 3 h
YPL131W = settings: S. cerevisiae GFP-tagged strains, 3 h
YPL150W = settings: S. cerevisiae GFP-tagged strains, 3 h
YPL220W = settings: S. cerevisiae GFP-tagged strains, 3 h
YPL265W = settings: S. cerevisiae GFP-tagged strains, 3 h
YPR132W = settings: S. cerevisiae GFP-tagged strains, 3 h
YPR145W = settings: S. cerevisiae GFP-tagged strains, 3 h
YPR184W = settings: S. cerevisiae GFP-tagged strains, 3 h

SMILES: CNc1nc(N)c([N+](=O)[O-])c(Nc2cccc(F)c2)n1
- GFP ratio to DMSO [1]: 1.69
- GFP ratio to DMSO (YAL060W): 2.27
- GFP ratio to DMSO (YAL061W): 1.57
- GFP ratio to DMSO (YBL087C): 0.567
- GFP ratio to DMSO (YBR072W): 1.53
- GFP ratio to DMSO (YBR139W): 1.12 (inactive)
- GFP ratio to DMSO (YBR208C): 2.34
- GFP ratio to DMSO (YBR248C): 1.03 (inactive)
- GFP ratio to DMSO (YCL064C): 1.15 (inactive)
- GFP ratio to DMSO (YCR002C): 0.939 (inactive)
- GFP ratio to DMSO (YCR005C): 4.96
- GFP ratio to DMSO (YDL130W): 0.917 (inactive)
- GFP ratio to DMSO (YDL204W): 1.33 (inactive)
- GFP ratio to DMSO (YDL205C): 0.958 (inactive)
- GFP ratio to DMSO (YDR070C): 2.45
- GFP ratio to DMSO (YDR382W): 0.981 (inactive)
- GFP ratio to DMSO (YDR399W): 0.957 (inactive)
- GFP ratio to DMSO (YDR453C): 1.5 (inactive)
- GFP ratio to DMSO (YEL007W): 0.993 (inactive)
- GFP ratio to DMSO (YEL060C): 1.88
- GFP ratio to DMSO (YEL063C): 1.23 (inactive)
- GFP ratio to DMSO (YEL071W): 2.83
- GFP ratio to DMSO (YER081W): 1.07 (inactive)
- GFP ratio to DMSO (YER117W): 0.434
- GFP ratio to DMSO (YER151C): 1.03 (inactive)
- GFP ratio to DMSO (YER156C): 1.08 (inactive)
- GFP ratio to DMSO (YFR031C-A): 0.845 (inactive)
- GFP ratio to DMSO (YFR053C): 1.46 (inactive)
- GFP ratio to DMSO (YGL036W): 0.845 (inactive)
- GFP ratio to DMSO (YGL062W): 2.1
- GFP ratio to DMSO (YGL135W): 0.899 (inactive)
- GFP ratio to DMSO (YGL147C): 0.799 (inactive)
- GFP ratio to DMSO (YGR019W): 1.42 (inactive)
- GFP ratio to DMSO (YGR034W): 0.814 (inactive)
- GFP ratio to DMSO (YGR088W): 1.71
- GFP ratio to DMSO (YGR121C): 1.38 (inactive)
- GFP ratio to DMSO (YHL021C): 1.99
- GFP ratio to DMSO (YHR018C): 1.14 (inactive)
- GFP ratio to DMSO (YHR087W): 1.64
- GFP ratio to DMSO (YHR141C): 0.925 (inactive)
- GFP ratio to DMSO (YHR144C): 0.778 (inactive)
- GFP ratio to DMSO (YHR203C): 0.857 (inactive)
- GFP ratio to DMSO (YIL043C): 1.04 (inactive)
- GFP ratio to DMSO (YIL051C): 1.3 (inactive)
- GFP ratio to DMSO (YIL052C): 0.769 (inactive)
- GFP ratio to DMSO (YIL066C): 1.04 (inactive)
- GFP ratio to DMSO (YIL069C): 0.764 (inactive)
- GFP ratio to DMSO (YJL056C): 0.886 (inactive)
- GFP ratio to DMSO (YJL144W): 1.39 (inactive)
- GFP ratio to DMSO (YJR148W): 3.13
- GFP ratio to DMSO (YKL086W): 1.17 (inactive)
- GFP ratio to DMSO (YKL103C): 2.2
- GFP ratio to DMSO (YKL119C): 0.959 (inactive)
- GFP ratio to DMSO (YKR039W): 4.91
- GFP ratio to DMSO (YKR093W): 4.31
- GFP ratio to DMSO (YKR094C): 0.898 (inactive)
- GFP ratio to DMSO (YLL026W): 1.75
- GFP ratio to DMSO (YLL039C): 1.49 (inactive)
- GFP ratio to DMSO (YLR058C): 1.02 (inactive)
- GFP ratio to DMSO (YLR109W): 1.39 (inactive)
- GFP ratio to DMSO (YLR142W): 0.857 (inactive)
- GFP ratio to DMSO (YLR185W): 0.893 (inactive)
- GFP ratio to DMSO (YLR237W): 0.775 (inactive)
- GFP ratio to DMSO (YLR287C-A): 0.753 (inactive)
- GFP ratio to DMSO (YLR367W): 0.896 (inactive)
- GFP ratio to DMSO (YML004C): 1.28 (inactive)
- GFP ratio to DMSO (YML026C): 0.557
- GFP ratio to DMSO (YML034W): 0.944 (inactive)
- GFP ratio to DMSO (YML063W): 0.897 (inactive)
- GFP ratio to DMSO (YML128C): 1.68
- GFP ratio to DMSO (YMR105C): 1.72
- GFP ratio to DMSO (YMR120C): 0.686 (inactive)
- GFP ratio to DMSO (YMR251W-A): 1.64
- GFP ratio to DMSO (YMR307W): 0.845 (inactive)
- GFP ratio to DMSO (YNL015W): 1.62
- GFP ratio to DMSO (YNL068C): 1.09 (inactive)
- GFP ratio to DMSO (YNL112W): 0.894 (inactive)
- GFP ratio to DMSO (YNL142W): 9.4
- GFP ratio to DMSO (YNL214W): 0.945 (inactive)
- GFP ratio to DMSO (YNR001C): 1.57
- GFP ratio to DMSO (YOL052C-A): 2.48
- GFP ratio to DMSO (YOR038C): 1.15 (inactive)
- GFP ratio to DMSO (YOR063W): 0.919 (inactive)
- GFP ratio to DMSO (YOR136W): 1.43 (inactive)
- GFP ratio to DMSO (YOR173W): 1.45 (inactive)
- GFP ratio to DMSO (YOR182C): 0.657 (inactive)
- GFP ratio to DMSO (YOR371C): 0.944 (inactive)
- GFP ratio to DMSO (YOR375C): 1.83
- GFP ratio to DMSO (YPL111W): 2.48
- GFP ratio to DMSO (YPL131W): 0.93 (inactive)
- GFP ratio to DMSO (YPL150W): 0.959 (inactive)
- GFP ratio to DMSO (YPL220W): 1.04 (inactive)
- GFP ratio to DMSO (YPL265W): 1.93
- GFP ratio to DMSO (YPR132W): 0.841 (inactive)
- GFP ratio to DMSO (YPR145W): 1.98
- GFP ratio to DMSO (YPR184W): 1.61
